Source: patent publication US9586957B2, “2-keto amide derivatives as HIV attachment inhibitors” (priority 2013, dated 2017)
Read-outs that look alike come from different tables or passages of the source.

System: HIV-1 LAI
Assay: Single-round infectious HIV-1 LAI envelope luciferase reporter virus infection of MT2 cells
Format: cell-based
Conditions: Human immunodeficiency virus 1, MT2, 72 h
Excerpt: • Virus production—Human embryonic Kidney cell line, 293T (HEK 293T), was propagated in Dulbecco's Modified Eagle Medium (Invitrogen, Carlsbad, Calif.) containing 10% fetal bovine serum (FBS, Sigma, St. Louis, Mo.). The human T-cell leukemia cell MT2 (AIDS Research and Reference Reagent Program, Cat. 237) was propagated in RPMI 1640 (Invitrogen, Carlsbad, Calif.) containing 10% fetal bovine serum (FBS, Hyclone, Logan, Utah) • Virus infection—Single-round infectious reporter virus was produced by co-transfecting HEK 293T cells with plasmide expressing the HIV-1 LAI envelope along with a plasmid containing an HIV-1 LAI proviral cDNA with the envelope gene replaced by a firefly luciferase reporter gene (Chen et al., Ref 41). Transfections were performed using lipofectAMINE PLUS reagent as described by the manufacturer (Invitrogen, Carlsbad, Calif.). Experimental Procedure • 1. MT2 cells were plated in black, 384 well plates at a cell density of 5×10^3 cells per well in 25 μl RPMI 1640 containing 10% FBS. • 2. Compound (diluted in dimethylsulfoxide and growth medium) was added to cells at 12.5 μl/well, so that the final assay concentration would be ≦50 nM. • 3. 12.5 μl of single-round infectious reporter virus in Dulbecco's Modified Eagle
Medium was added to the plated cells and compound at an approximate multiplicity of infection (MOI) of 0.01, resulting in a final volume of 50 μl per well. • 4. Virus-infected cells were incubated at 37 degrees Celsius in a CO2 incubator and harvested 72 h after infection. • 5. Viral infection was monitored by measuring luciferase expression in the infected cells using a luciferase reporter gene assay kit (Steady-Glo, Promega, Madison, Wis.) as described by the manufacturer. Luciferase activity was then quantified by measuring luminescence using an EnVision Multilabel Plate Readers (PerkinElmer, Waltham, Mass.). • 6. The percent inhibition for each compound was calculated by quantifying the level of luciferase expression in cells infected in the presence of each compound as a percentage of that observed for cells infected in the absence of compound and subtracting such a determined value from 100. • 7. An EC50 provides a method for comparing the antiviral potency of the compounds of the invention. The effective concentration for fifty percent inhibition (EC50) was calculated with the Microsoft Excel Xlfit curve fitting software. For each compound, curves were generated from percent inhibition calculated at 10 different concentrations by using a four parameter logistic model (model 205). Table 1 is the key for the data in Table 2.

[1] = read-out: EC50 Group from Table 1

O=C(C(=O)N1CCC(c2ccccc2)C1)c1c[nH]c2c(-n3ccnn3)ncc(F)c12 (centres unmarked) [Compound 1001]
EC50: 38.1 nM
EC50 [1]: < 500 nM

O=C(C(=O)N1CCC[C@H](c2ccccc2)C1)c1c[nH]c2c(-n3ccnn3)ncc(F)c12 [Compound 1002]
EC50 [1]: < 500 nM

O=C(C(=O)N1CCCC(c2ccc(Cl)cc2)C1)c1c[nH]c2c(-n3ccnn3)ncc(F)c12 (centres unmarked) [Compound 1003]
EC50 [1]: > 500 nM

O=C(C(=O)N1CCCC(c2cccc(F)c2)C1)c1c[nH]c2c(-n3ccnn3)ncc(F)c12 (centres unmarked) [Compound 1004]
EC50 [1]: > 500 nM

O=C(C(=O)N1CCCC(Cc2ccccc2)C1)c1c[nH]c2c(-n3ccnn3)ncc(F)c12 (centres unmarked) [Compound 1005]
EC50 [1]: > 500 nM

O=C(C(=O)N1CCCC(c2ccccc2)CC1)c1c[nH]c2c(-n3ccnn3)ncc(F)c12 (centres unmarked) [Compound 1006]
EC50 [1]: < 500 nM

O=C(C(=O)N1CCC(Nc2ccccc2)C1)c1c[nH]c2c(-n3ccnn3)ncc(F)c12 (centres unmarked) [Compound 1007]
EC50 [1]: < 500 nM

COc1cnc(-n2cnc(C)n2)c2[nH]cc(C(=O)C(=O)N3CCC(=C(C#N)c4ccccc4)C3)c12 [Compound 1008]
EC50: 18.9 nM
EC50 [1]: < 500 nM

O=C(C(=O)N1CCC(Oc2ccccc2)CC1)c1c[nH]c2c(-n3ccnn3)ncc(F)c12 [Compound 1009]
EC50 [1]: < 500 nM

O=C(C(=O)N1CCC(Nc2ccccc2)CC1)c1c[nH]c2c(-n3ccnn3)ncc(F)c12 [Compound 1010]
EC50: 41.8 nM
EC50 [1]: < 500 nM

CCC(=O)N(c1ccccc1)C1CCN(C(=O)C(=O)c2c[nH]c3c(-n4ccnn4)ncc(F)c23)CC1 [Compound 1011]
EC50 [1]: < 500 nM

COc1ccnc2[nH]cc(C(=O)C(=O)N3CCC(Oc4ccccc4)CC3)c12 [Compound 1012]
EC50 [1]: < 500 nM

COc1ncc(OC)c2c(C(=O)C(=O)N3CCC(Oc4ccccc4)CC3)c[nH]c12 [Compound 1013]
EC50 [1]: > 500 nM

COc1ccnc2[nH]cc(C(=O)C(=O)N3CCC(Oc4ccc(Cl)cc4)CC3)c12 [Compound 1014]
EC50: 757 nM
EC50 [1]: > 500 nM

COc1ncc(OC)c2c(C(=O)C(=O)N3CCC(Oc4ccc(Cl)cc4)CC3)c[nH]c12 [Compound 1015]
EC50 [1]: > 500 nM

O=C(C(=O)N1CCCC(Oc2ccccc2)C1)c1c[nH]c2cccc(F)c12 (centres unmarked) [Compound 1016]
EC50 [1]: > 500 nM

NC(=O)C1(Nc2ccccc2)CCN(C(=O)C(=O)c2c[nH]c3ccccc23)CC1 [Compound 1017]
EC50 [1]: > 500 nM

O=C(C(=O)N1CCC(Nc2cccc(S(=O)(=O)C(F)(F)F)c2)CC1)c1c[nH]c2ccccc12 [Compound 1018]
EC50 [1]: > 500 nM

O=C(C(=O)N1CCC(c2cccc(C(F)(F)F)c2)C(O)C1)c1c[nH]c2ccccc12 (centres unmarked) [Compound 1019]
EC50 [1]: > 500 nM

COc1ccc(OC2CN(C(=O)C(=O)c3c[nH]c4c(-n5ccnn5)ncc(F)c34)C2)cc1 [Compound 1020]
EC50 [1]: < 500 nM

COc1cnc(-n2cnc(C)n2)c2[nH]cc(C(=O)C(=O)N3CCc4ncn(-c5ccccc5)c4CC3)c12 [Compound 2001]
EC50: 0.09 nM
EC50 [1]: < 500 nM

COc1cnc(-n2cnc(C)n2)c2[nH]cc(C(=O)C(=O)N3CCc4nn(-c5ccccc5)cc4C3)c12 [Compound 2002]
EC50: 0.92 nM
EC50 [1]: < 500 nM

COc1cnc(-n2cnc(C)n2)c2[nH]cc(C(=O)C(=O)N3Cc4nn(-c5ccccc5)c(N)c4C3)c12 [Compound 2003]
EC50 [1]: < 500 nM
